Experimental findings from patent US10526317B2, “Benzocyanine compounds” (PIERCE BIOTECHNOLOGY, INC., priority 2012, dated 2020) are described below.

A short description of data set [1]: Absorption/emission profiles and spectral properties of the dyes. The class given is physicochemical. On the procedure:
The following properties of 679 Compound 1-NHS were compared with commercially available dyes.
Emission/excitation profiles for inventive and commercial compounds was determined by reconstituting the compounds in DMF at 10 mg/ml and then diluting in PBS buffer pH 7.2 to 10 μg/ml. Absorbance spectra were collected on Cary UV spectrophotometer and emission spectra were collected on Tecan Safire, shown in FIG. 1 where solid lines represent absorbance spectra and dashed lines represent emission spectra, for DyLight 680-NHS (purple), DyLight 680B-NHS (blue), 679 Compound 1-NHS (red), and Company B Compound-NHS (black). The maximum absorbance and emission for each compound is shown below.
The following properties of 679 Compound 1-NHS, 679 Compound 4/4-NHS (V08-15173), and 679 Compound 4/4-NHS (V10-04152) were compared with commercially available dyes.

Data set [2] concerns CEA. Also on record: species or system nu/nu mice. The following applies: mouse. As to the method:
The inventive compounds are used for in vivo imaging as described in J. Gastrointest Surg (2008) 12:1938-1950. Briefly, human pancreatic cell lines are maintained in media supplemented with penicillin/streptomycin at 37° C. with 5% CO2. Mouse anti-CEA antibody and Control Mouse IgG (in PBS with 0.20% sodium azide) are conjugated to V08-15173. The dye is reconstituted at 10 mg/ml in DMF and then added to the antibody at a 10 molar excess. The reaction is carried out for one hour at room temperature. The samples are then dialyzed against 3×2 L of PBS. The cell lines are plated in 96-well plates at 5×10^4 cells per well. After 48 hours culture in appropriate media, the cells are incubated with 1 μg of V08-15173 labeled anti-CEA antibody or V08-15173-labeled control mouse IgG for four hours at 37° C. The cells are then washed three times with PBS and then imaged with an inverted Nikon De-485 microscope and Spot camera RD.
Surgical procedures and intravital imaging are performed with the animals anesthesized by intramuscular injection of 0.02 ml of 50% ketamine, 38% xylazine and 12 acepromazine maleate. Human pancreatic and colorectal cancer cell lines are harvested by trypsinization and washed twice with serum free medium and washed twice with serum-free medium. Cells (1×10^6 in 100 μl of serum-free media) are injected subcutaneously within 30 minutes of harvesting over the right flank in female nu/nu mice between 4-6 weeks of age. Subcutaneous tumors are allowed to grow for 7-14 days until they reached diameter of 1-2 mm prior to the delivery of conjugated antibody. For ASPC-1 implants, the cells are harvested by trpsinization and washed 3× in serum-free media. The cells are resuspended in serum-free media. The cells are resuspended in serum-free media at 5×10^6/ml. A volume of 200 μl of the cell suspension is then injected directly into the peritoneal cavity within 30 minutes of harvesting.
For antibody delivery, one to two weeks after subcutaneous, orthotopic, or intraperitoneal tumor implantation, animals are given intravenous (i.v.) injection of either conjugated anti-CEA or conjugated control IgG antibody diluted in PBS to a final volume of 100 μl. All i.v. injections are done via the tail vein. For the dose-response experiment, the antibody dose is 75 μg. For the in vivo time course, the animals are anesthesized and imaged at 30 min, 1, 2, 6, 24 hours and 8 and 15 days after systemic antibody delivery.
The inventive compounds are used for in vivo imaging as described in J. Gastrointest Surg (2008) 12:1938-1950. Briefly, human pancreatic cell lines are maintained in media supplemented with penicillin/streptomycin at 37° C. with 5% CO2. Mouse anti-CEA antibody and Control Mouse IgG (in PBS with 0.20% sodium azide) are conjugated to 779 Compound 1. […]

Data set [3] can be described thus: Micro conjugation (labeling of ≥0.1 mg monoclonal antibody): D/P, protein recovery, free dye. The settings on record: 15 μg dye or commercial kit, mouse MAb. As to the method: Another experiment set used inventive and commercial compounds, each as the NHS ester, in a micro conjugation (labeling of≥0.1 mg antibody). […] The antibodies were labeled and purified as described above.

Setting [4] is: first property table of Example 6.
Where [5] appears, read: second property table of Example 6.

Consider `COCC[N+]1=C(/C=C/C=C/C=C2/N(CCCCCC(=O)O)c3ccc4c(S(=O)(=O)[O-])cc(S(=O)(=O)[O-])cc4c3C2(C)C)C(C)(CCCS(=O)(=O)[O-])c2c1ccc1c(S(=O)(=O)[O-])cc(S(=O)(=O)[O-])cc21.[Na+].[Na+].[Na+].[Na+]` (single isomer, unassigned) [679 Compound 1/1 (Isomer 1), 2-{(1E,3E)-5-[3-(5-Carboxypentyl)-1,1-dimethyl-6,8-disulfo-1,3-dihydro-benzo[e]indol-(2E)-ylidene]-penta-1,3-dienyl}-3-(2-methoxy-ethyl)-1-methyl-6,8-disulfo-1-(3-sulfopropyl)-1H-benzo[e]indolium], for which, in data set [1] (PBS), the “UV-vis (PBS): λmax” value was determined as 679 nm and the λem is recorded as 698 nm.

`COCC[N+]1=C(/C=C/C=C/C=C2/N(CCCCCC(=O)O)c3ccc4c(S(=O)(=O)[O-])cc(S(=O)(=O)[O-])cc4c3C2(C)C)C(C)(CCCS(=O)(=O)[O-])c2c1ccc1c(S(=O)(=O)[O-])cc(S(=O)(=O)[O-])cc21.[Na+].[Na+].[Na+].[Na+]` (single isomer, unassigned) [679 Compound 1/1 (Isomer 2), 2-{(1E,3E)-5-[3-(5-Carboxypentyl)-1,1-dimethyl-6,8-disulfo-1,3-dihydro-benzo[e]indol-(2E)-ylidene]-penta-1,3-dienyl}-3-(2-methoxy-ethyl)-1-methyl-6,8-disulfo-1-(3-sulfopropyl)-1H-benzo[e]indolium] came in with a λem in data set [1] (PBS) of 698 nm.

Turning to `COCC[N+]1=C(/C=C/C=C/C=C2/N(CCCCCC(=O)ON3C(=O)CCC3=O)c3ccc4c(S(=O)(=O)[O-])cc(S(=O)(=O)O)cc4c3C2(C)C)C(C)(CCCS(=O)(=O)O)c2c1ccc1c(S(=O)(=O)O)cc(S(=O)(=O)O)cc21` (stereo not drawn) [679 Compound 1-NHS], in data set [1] (setting [4]), the “Em (nm)” value was determined as 698 nm and the “Ex (nm)” value turned out to be 679 nm. Moreover, in data set [1] (setting [5]), the “Em (nm)” value worked out at 698 nm and the “Ex (nm)” value was determined as 679 nm. Besides, in data set [1] (theoretical), the “ε (M^−1cm^−1) (theoretical)” value was 180,000 M^−1cm^−1 and the “ε (M−1cm−1) (theoretical)” value is listed as 180,000 M−1cm−1.

Regarding `COCC[N+]1=C(/C=C/C=C/C=C/C=C2/N(CCCCCC(=O)O)c3ccc4c(S(=O)(=O)[O-])cc(S(=O)(=O)O)cc4c3C2(C)C)C(C)(CCCS(=O)(=O)O)c2c1ccc1c(S(=O)(=O)O)cc(S(=O)(=O)O)cc21` (stereo not drawn) [779 Compound 1], the “Ex vivo analysis of the vital organs (in words)” value in data set [2] was “presence of dye predominantly in the liver with some signal detected in the spleen intestines and lungs”. In addition, the “post-experiment surgical exposure (in words)” value in data set [2] (in vivo) was “accumulation of dye in the liver, bladder, and a region of inflammation in the subcutaneous tissue”.

For `COCCOCCOCCOCC[N+]1=C(/C=C/C=C/C=C2/N(CCOCCOCCOCCOCCC(=O)ON3C(=O)CCC3=O)c3ccc4c(S(=O)(=O)[O-])cc(S(=O)(=O)O)cc4c3C2(C)CCOCCOCCOCCOC)C(C)(CCOCCOCCOCCOC)c2c1ccc1c(S(=O)(=O)O)cc(S(=O)(=O)O)cc21` (stereo not drawn) [V08-15173 NHS], in data set [1] (setting [5]), the “Em (nm)” value is 706 nm and the “Ex (nm)” value amounted to 684 nm. Further, in data set [1] (theoretical), the “ε (M^−1cm^−1) (theoretical)” value was 180,000 M^−1cm^−1.

Take Alexa 680-PDI: the “% Free Dye” value in data set [3] was found to be 9%.

For Alexa 680-cytochrome C, the “% Free Dye” value in data set [3] was 3%.

CF 680-cytochrome C: in data set [3], the “% Free Dye” value came out at 17%.

As for CF 680R-cytochrome C, the “% Free Dye” value in data set [3] turned out to be 5%.
